Consider two compounds from patent EP1383793B1 (priority 2000, dated 2001).

The target of series [1] is T1, IR (Homo sapiens, UniProt P06213).
T1 construct: composed of the extracellular domains of both the α and β chains of the natural receptor; made in house; background b13 names human embryonic kidney 293 cells for the Bass et al. construct
Put plainly: Phage ELISA, binding of phage-displayed peptides to IR.

The next series has as its system adipocytes. The experiment in a line: 3H-glucose uptake into adipocytes (fat cell assay, FFC). The class given is cell-based, Mouse. To be noted: Subjective ranking; basal and sub maximal insulin; includes series A.
The target in series [2] is T1, IR. The experiment in a line: Phage ELISA, competition of phage binding by soluble synthetic peptides, IR-coated wells. To be noted: Insulin Receptor.
Method: (§2) Phage ELISA. […] The wells were blocked with 200 µl of MPBS for 1.5 h at RT. Phage were added at 100 µl per well. Peptides were added as noted below and allowed to incubate at RT for 3 h. The plates were washed 3 times with PBST. A solution of 1:3000 diluted HRP:Anti-M13 conjugate at 100 µl per well of was added for 1 h. Following a repeat of the washing, 100 µl of ABTS was added for 15-30 min.
(§3) Peptide Competition. […] Twenty microliters of the stock synthetic-peptide solution was added to Row A. A series of 20 µl into 100 µl dilutions were performed until Row G. Twenty microliters were discarded from Row G to maintain 100 µl per well. Row H was reserved as no peptide wells. […] The volume was maintained by the addition of 18 µl of the phage solution to Row A.
(§4) Phage ELISA. […] The wells were blocked with 200 µl of 2% (w/v) Carnation non-fat dry milk in PBS for 1.5 h at RT. Phage were added at 100 µl per well. Peptides were added as noted below and allowed to incubate at RT for 3 h. The plates were washed 3X with PBST. A solution of 1:3000 diluted HRP:Anti-M13 Conjugate at 100 µl per well of was added for 1 h. Following a repeat of the washing, 100 µl of ABTS was added for 15-30 min. The OD405 was measured using a SpectraMax 340 Microplate Spectrophotometer.
(§5) Peptide Competition. Peptide Competition Curves were produced during the phage ELISA across rows in triplicate. The stock synthetic peptide solution was added to Column 12 so that the total volume totaled 150 µl (additional phage solution was added when necessary). A serial dilution was made by transferring 50 µl from Column 12 into 100 µl in Column 11, 50 µl from Column 11 into 100 µl in Column 10, and continuing the serial dilution until Column 2. Fifty microliters were discarded from Column 2 to maintain 100 µl per well. Column 1 was reserved as no peptide wells.
(§6) A p53-like peptide that binds to MDM2 was used as a negative control.
In series [3] the target is T2, IGF-1R (Homo sapiens, UniProt P08069).
T2 construct: Soluble IGF-1R was obtained from R&D Systems; purchased R&D Systems 391-GR/CF
T2 sequence (P08069 31-736 limits assumed): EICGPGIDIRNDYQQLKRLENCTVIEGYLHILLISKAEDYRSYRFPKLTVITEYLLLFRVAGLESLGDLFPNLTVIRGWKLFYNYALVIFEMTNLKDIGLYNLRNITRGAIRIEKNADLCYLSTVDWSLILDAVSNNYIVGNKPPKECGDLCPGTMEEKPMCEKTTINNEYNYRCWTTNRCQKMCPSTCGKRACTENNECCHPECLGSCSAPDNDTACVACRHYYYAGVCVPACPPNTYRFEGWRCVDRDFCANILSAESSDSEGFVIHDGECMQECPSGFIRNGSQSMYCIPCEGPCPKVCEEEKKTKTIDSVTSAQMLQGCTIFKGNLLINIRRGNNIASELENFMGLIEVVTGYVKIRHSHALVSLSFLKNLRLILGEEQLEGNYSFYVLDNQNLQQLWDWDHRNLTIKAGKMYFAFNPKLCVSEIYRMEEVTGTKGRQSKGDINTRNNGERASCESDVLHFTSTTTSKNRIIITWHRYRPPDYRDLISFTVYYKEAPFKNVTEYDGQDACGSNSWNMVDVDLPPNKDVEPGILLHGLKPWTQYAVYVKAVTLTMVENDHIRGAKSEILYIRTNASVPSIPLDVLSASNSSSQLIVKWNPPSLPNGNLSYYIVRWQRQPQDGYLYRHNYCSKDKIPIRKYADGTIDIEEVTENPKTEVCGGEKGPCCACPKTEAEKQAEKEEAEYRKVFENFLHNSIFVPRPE
T2 sequence (P08069 741-935 limits assumed): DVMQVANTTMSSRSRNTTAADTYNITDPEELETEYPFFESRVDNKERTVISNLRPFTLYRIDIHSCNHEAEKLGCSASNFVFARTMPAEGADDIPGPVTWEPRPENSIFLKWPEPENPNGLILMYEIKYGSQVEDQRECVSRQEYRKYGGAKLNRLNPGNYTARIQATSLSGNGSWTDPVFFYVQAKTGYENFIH
Put plainly: Phage ELISA, competition of phage binding by soluble synthetic peptides, IGF-1R-coated wells. To be noted: IGF Receptor, H2 Phage.
Method: as §2, §3, §4, §5, §6

Series [4] has as its target T2, IGF-1R. Put plainly: Heterogeneous time-resolved fluorescence (Eu) competitive binding assay on IGF-1R. How it is done: The TRFD assay format is well established, sensitive, and quantitative (Tompkins et al., 1993).
(§1) In these assays, soluble IGF-1 receptor is coated on the surface of microtiter wells, blocked by PBS containing milk and BSA, and then incubated with biotinylated peptide or rVab. Unbound bP is then washed away and saEu is added to complex with receptor-bound bP. Upon addition of the acidic enhancement solution, the bound europium is released as free Eu^+3 which rapidly forms a highly fluorescent and stable complex with components of the enhancement solution.
The plates were blocked with PBS containing 2% non-fat milk and 0.05% BSA for 2 h at RT, followed by three PBS washes. […] The plates were then washed 5 times with TTBS (TBS buffer containing Tween-20; Wallac) and tapped dry.

The target of series [5] is T3, Insulin receptor (Homo sapiens, UniProt P06213).
T3 construct: composed of the extracellular domains of both the α and β chains of the natural receptor; made in house; background b13 names human embryonic kidney 293 cells for the Bass et al. construct
T3 sequence (P06213 28-758 limits assumed): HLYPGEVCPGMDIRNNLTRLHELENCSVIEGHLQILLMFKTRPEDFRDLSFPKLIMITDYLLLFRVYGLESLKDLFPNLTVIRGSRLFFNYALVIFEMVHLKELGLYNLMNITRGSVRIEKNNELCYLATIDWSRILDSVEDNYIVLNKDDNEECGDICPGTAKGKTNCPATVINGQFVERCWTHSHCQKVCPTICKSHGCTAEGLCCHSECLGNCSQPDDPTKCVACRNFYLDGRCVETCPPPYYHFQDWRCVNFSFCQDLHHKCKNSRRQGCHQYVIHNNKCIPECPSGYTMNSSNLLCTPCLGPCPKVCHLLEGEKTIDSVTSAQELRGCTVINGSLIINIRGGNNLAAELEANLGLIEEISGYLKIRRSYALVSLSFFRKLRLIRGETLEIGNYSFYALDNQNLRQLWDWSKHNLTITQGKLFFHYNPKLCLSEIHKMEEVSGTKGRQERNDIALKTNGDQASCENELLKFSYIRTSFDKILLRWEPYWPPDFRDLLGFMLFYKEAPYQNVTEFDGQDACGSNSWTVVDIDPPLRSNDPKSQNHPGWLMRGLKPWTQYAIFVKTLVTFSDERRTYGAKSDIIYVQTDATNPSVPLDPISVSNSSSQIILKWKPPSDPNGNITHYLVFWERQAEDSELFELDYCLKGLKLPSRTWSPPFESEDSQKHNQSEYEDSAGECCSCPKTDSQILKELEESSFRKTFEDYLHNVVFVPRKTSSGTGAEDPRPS
T3 sequence (P06213 763-956 limits assumed): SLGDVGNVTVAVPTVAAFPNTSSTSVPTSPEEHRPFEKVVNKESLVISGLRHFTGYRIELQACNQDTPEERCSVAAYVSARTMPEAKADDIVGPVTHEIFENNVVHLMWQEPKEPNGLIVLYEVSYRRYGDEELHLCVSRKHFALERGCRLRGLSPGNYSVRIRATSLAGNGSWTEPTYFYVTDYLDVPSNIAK
The experiment in a line: Heterogeneous time-resolved fluorescence assay (TRFA) on insulin receptor. Type of series: binding. How it is done:
In this assay, saEu forms a ternary complex with bP and IR (i.e., IR:bP:saEu complex). The TRFD assay format is well established, sensitive, and quantitative (Tompkins et al., 1993). The assay can use a single-chain antibody or a biotinylated peptide.
as §1, with “IR” for “IGF-1 receptor”, “a solution of 0.5% BSA and 2% non-fat” for “PBS containing”, “in PBS,” for “and BSA,”, “Eu^3+” for “Eu^+3”, “solution. The IR:bP bound saEu is then converted into its highly fluorescent state and detected by a detector such as Wallac Victor II (EG&G Wallac, Inc.)” for “solution.”
• a. Heterogeneous Time-Resolved Fluorescence Assay. […] The plates were blocked with TBS containing 2% milk and 0.5% BSA for 1 h at RT followed by three TBS washes. […] After TBS wash, europium-labeled streptavidin at 1 µg/ml in assay buffer (100 mM Tris-HCl, pH 7.8; 150 mM NaCl; 0.5% BSA; 0.05% bovine Ig; 0.05% NaN3; 0.01% Tween-20) was added to the plates and incubated for 1 h. To test binding of rVab antibodies to IR, Eu-labeled rVab antibodies in assay buffer were added to the plates and incubated for 2 h to overnight. After incubation with Eu-labeled streptavidin (for peptide test) or europium-labeled rVabs, the plates were washed 5 times with Tris-buffered saline (pH 7.5) containing 0.1 % Tween-20 (TTBS) and tapped dry. Sixty microliters of EG&G Wallac enhancement solution (100 mM acetone-potassium hydrogen pthalate, pH 3.2; […] 2-naphtyltrifluoroacetate; […] tri(n-octyl)-phosphine oxide; 0.1 % Triton X-100) was added into each well, and the plates were placed onto a shaker for 20 min at RT. […] Homogeneous Time-Resolved Fluorescence Assay. […] For library screening, 20 µM of small organic molecules in 2 % DMSO are included in the mixture.

Series [6] can be described thus: Precipitate in diluted peptide stock prior to adding to the fat cell assay; solubility under assay conditions. The class given is physicochemical. The note with it: diluted stock prior to adding to assay.
For series [7], the target named is human IGF-1 receptor (HIGF-1R) (Homo sapiens, UniProt P08069). The experiment in a line: 125I-IGF-1 competition binding assay on solubilised purified receptor.
human IGF-1 receptor (HIGF-1R), sequence (P08069 31-736 limits assumed): as the sequence (P08069 31-736 limits assumed) above
human IGF-1 receptor (HIGF-1R), sequence (P08069 741-1367 limits assumed): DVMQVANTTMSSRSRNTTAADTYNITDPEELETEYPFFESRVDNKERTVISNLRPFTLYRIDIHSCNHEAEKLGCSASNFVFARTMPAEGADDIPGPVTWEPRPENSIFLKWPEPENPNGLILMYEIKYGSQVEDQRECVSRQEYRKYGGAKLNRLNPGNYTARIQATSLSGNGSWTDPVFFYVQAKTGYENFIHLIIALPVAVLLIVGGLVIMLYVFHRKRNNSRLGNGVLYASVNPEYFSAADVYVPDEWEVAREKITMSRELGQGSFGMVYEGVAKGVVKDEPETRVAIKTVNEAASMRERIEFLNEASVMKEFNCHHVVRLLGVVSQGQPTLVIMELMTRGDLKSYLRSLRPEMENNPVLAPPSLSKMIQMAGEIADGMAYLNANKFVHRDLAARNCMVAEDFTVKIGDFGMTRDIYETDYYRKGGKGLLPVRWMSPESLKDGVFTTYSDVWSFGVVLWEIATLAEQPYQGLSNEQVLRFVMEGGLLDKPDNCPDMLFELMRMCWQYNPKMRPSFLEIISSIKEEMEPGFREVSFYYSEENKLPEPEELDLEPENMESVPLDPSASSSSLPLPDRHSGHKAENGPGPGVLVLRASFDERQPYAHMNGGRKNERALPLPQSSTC
The target in series [8] is T2, IGF-1R. The experiment in a line: Phage ELISA, binding of phage-displayed peptides to IGF-1R. The note with it: 405 nm.
Series [9] deals with T4, purified insulin receptor (Homo sapiens, UniProt P06213).
T4 construct: host or cells: 'Wheat Germ Agglutinin Expression System' (so in the source)
T4 sequence (P06213 28-758 limits assumed): as the sequence (P06213 28-758 limits assumed) above
T4 sequence (P06213 763-1382 limits assumed): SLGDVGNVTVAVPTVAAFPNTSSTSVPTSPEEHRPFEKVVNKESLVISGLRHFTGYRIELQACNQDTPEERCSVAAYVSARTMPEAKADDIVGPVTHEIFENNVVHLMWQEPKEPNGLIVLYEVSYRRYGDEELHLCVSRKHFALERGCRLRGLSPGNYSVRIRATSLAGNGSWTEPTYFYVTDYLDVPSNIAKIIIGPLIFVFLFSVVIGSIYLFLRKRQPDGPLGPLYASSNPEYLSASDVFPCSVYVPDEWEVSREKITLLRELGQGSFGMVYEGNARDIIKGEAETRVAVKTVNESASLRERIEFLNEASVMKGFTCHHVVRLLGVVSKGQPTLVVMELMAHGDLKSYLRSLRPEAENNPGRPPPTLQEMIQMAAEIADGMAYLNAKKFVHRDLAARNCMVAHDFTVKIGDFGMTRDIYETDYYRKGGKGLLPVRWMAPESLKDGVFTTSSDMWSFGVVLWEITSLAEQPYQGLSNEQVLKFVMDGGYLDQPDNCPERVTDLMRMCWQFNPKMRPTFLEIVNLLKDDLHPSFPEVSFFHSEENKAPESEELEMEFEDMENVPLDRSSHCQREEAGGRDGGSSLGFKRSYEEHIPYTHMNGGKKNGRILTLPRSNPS
Put plainly: Holoenzyme phosphorylation assay (IR autophosphorylation, Western blot). The class given is biochemical. How it is done:
Alternatively, IR autophosphorylation was determined using a holoenzyme phosphorylation assay. […] The reaction was stopped by adding 50 µl of gel loading buffer containing β-mercaptoethanol (Bio-Rad Laboratories, Inc., Hercules, CA). The samples were run on 4-12% SDS-polyacrylamide gels. Western Blot analysis was performed by transferring the proteins onto nitrocellulose membrane. The membrane was blocked in PBS containing 3% milk overnight. The membrane was incubated with anti-phosphotyrosine 4G10 HRP labeled antibody (Upstate Biotechnology) for 2 h. Protein bands were visualized using SuperSignal West Dura Extended Duration Substrate Chemiluminescence Detection System (Pierce Chemical Co.).

Series [10] concerns the target T3, Insulin receptor. Put plainly: BIAcore competition: IR pre-incubated with test substance, injected over immobilised insulin. The class given is binding. The note with it: peptide about 40 µM, IR 450 nM; IR alone 128 RU. How it is done:
Flowcell-1 was used for background binding to correct for any non-specific binding. […] The surface was regenerated with 25 mM NaOH. […] Thus, the system was validated for competition studies. […] The amino acid sequences referred to in the tables are identified in Figures 47 and 48, except the 447 and 2A9 sequences, which are shown below. TABLE 9: BIAcore Results-Fusion Proteins Compete for Binding to IR

Series [11] concerns the target T2, IGF-1R. Put plainly: IGF-1R peptide assay, competition dissociation of 20E2. The class given is binding. The note with it: peptides 100 µM, IGF-1 30 µM. How it is done: • a. Preparation of the Assay Mix. […] This mixture was allowed to pre-incubate. • b. 20 µl of Competitor and Buffer were added to a 96-well microtiter plate (Costar Cat. #3912). • c. […] After the original 99 repeat readings were taken, periodic readings were taken until equilibrium had been established. NOTE: Different conditions can be used for these experiments. For example, a 1.1X concentration of assay mix can be initially made. Then first add 10 µl of Competitor and Buffer to the microtiter plate followed by 90 µl of the Assay Mix. • f.

Structures are written as SMILES. Positions of bridges follow the written chain, without caps; N, C: chain ends. Residues, ends and D or L forms follow the SMILES beside them. *: point of attachment. Biotin = O=C1N[C@H]2[C@H](CS[C@H]2CCCCC(=O)*)N1

T1 sequence (P06213 28-758 limits assumed): as the sequence (P06213 28-758 limits assumed) above
T1 sequence (P06213 763-956 limits assumed): as the sequence (P06213 763-956 limits assumed) above

As to `CC(C)[C@H](NC(=O)[C@H](Cc1ccccc1)NC(=O)[C@H](Cc1c[nH]c2ccccc12)NC(=O)[C@H](CC(=O)O)NC(=O)[C@H](Cc1ccc(O)cc1)NC(=O)[C@H](Cc1ccccc1)NC(=O)[C@H](CC(N)=O)NC(=O)[C@H](C)NC(=O)[C@H](C)NC(=O)[C@H](CC(=O)O)NC(=O)CNC(=O)[C@H](CS)NC(=O)[C@@H]1CCCN1C(=O)[C@H](CCCNC(=N)N)NC(=O)[C@H](C)NC(=O)[C@H](Cc1c[nH]c2ccccc12)NC(=O)[C@H](CS)NC(=O)[C@H](CC(=O)O)NC(=O)[C@H](CCCCN)NC(=O)[C@H](Cc1ccc(O)cc1)NC(=O)[C@@H](N)CC(=O)O)C(=O)N[C@@H](CCC(N)=O)C(=O)N[C@@H](CCC(N)=O)C(=O)N[C@@H](C)C(=O)N[C@@H](CO)C(=O)N[C@@H](CCCCN)C(=O)N[C@@H](CCCCNC(=O)CCCC[C@@H]1SC[C@@H]2NC(=O)N[C@@H]21)C(N)=O` [Clone C1], the “binding to IR when expressed as phage” value at IR [1] was “do not have detectable binding”. Also, the Resp. in the series on adipocytes stood at 0. Moreover, the “n (Hill plot)” value on IR [2] (20D3 Phage) is 0.83; at IR [2] (H2 Phage) it was 0.46; on IGF-1R [3], 0.96. For the same compound, the “binding of biotinylated peptide to IGF-1 R” value at IGF-1R [4] is reported as “nM range”. On Insulin receptor [5], the “binding of biotinylated peptide to IR” value is reported as “micromolar range”. For the same compound, in series [6], the “Comments (precipitation)” value is listed as “Precipitates”. For the same compound, the “affinity for HIGF-1R” value in [7] is on record as “high affinity”. Moreover, the Ratio in series [7] (Kd HIGF1R / Kd HIR) stood at 0.1.

In the case of `CC(C)C[C@H](NC(=O)[C@H](Cc1c[nH]c2ccccc12)NC(=O)[C@@H](N)CCCCN)C(=O)N[C@@H](CC(=O)O)C(=O)N[C@@H](CCC(N)=O)C(=O)N[C@@H](CCC(=O)O)C(=O)N[C@@H](Cc1c[nH]c2ccccc12)C(=O)N[C@@H](C)C(=O)N[C@@H](Cc1c[nH]c2ccccc12)C(=O)N[C@H](C(=O)N[C@@H](CCC(N)=O)C(=O)N[C@H]1CSSC[C@@H](C(=O)N2CCC[C@H]2C(=O)N[C@@H](CO)C(=O)N[C@@H](CCCCN)C(=O)N[C@@H](CCCCNC(=O)CCCC[C@@H]2SC[C@@H]3NC(=O)N[C@@H]32)C(N)=O)NC(=O)CNC(=O)[C@H](CCCNC(=N)N)NC(=O)CNC(=O)[C@H](Cc2ccc(O)cc2)NC(=O)[C@H](C(C)C)NC(=O)[C@H](CCC(=O)O)NC1=O)C(C)C` [Clone D8] (H-KWLDQEWAWVQCEVYGRGCPSKK(Biotin)-NH2; disulfide 12-19 (inferred); N-terminus assumed), the “Absorbance Values sIGF-1R” value at IGF-1R [8] came out at 2.19. On IR [1] (405 nm), the “Absorbance Values IR” value amounted to 1.42. Further, the Resp. with adipocytes is -1. Also, the “Autophosph. Blot” value in series [9] is listed as 0. The “Result (RUs)” value on Insulin receptor [10] was 41.6 RUs. On IGF-1R [11], the “effect on dissociation rate of 20E2 from IGF-1R” value is “much slower dissociation rate”. For the same compound, the “Comments (precipitation)” value in [6] was “Precipitates”.
